Legend:
E. coli K88 = assay: Antimicrobial effect of C6, C8 and C10 on E. coli K88 in acidified feed suspension (gastric simulation); format: cell-based; conditions: 20% feed suspension pH 4.0
Method: In this example the anti-microbial activity of C6 and/or C8 and/or C10 MCFA against E. coli K88 was evaluated. The preparation of the test solution was as follows. to 1 kg feed (composition Table 6) an exactly determined quantity of E. coli K 88 was added. Subsequently, a suspension of 20% feed and 80% physiologic solution (0,85% saline) was created. To simulate the 20%-suspension in a gastric environment, a pH of 4.0 with 0.1 N HCl was established.
The acidified suspension was distributed in samples of 100 ml. Test substances were added in different concentrations as mentioned in table 7.
A microbial count at t=0 was executed. Samples were incubated during 3 h at 37° C. Samples were removed after 3 h and pH and microbial count were determined. The E. coli strains were counted on a Coli ID medium (Bio Mérieux, 42017).
The planned observations were: • a. Microbial count of control sample (blank) on t=0 • b. Microbial count of control sample (blank) and treatments on t=3 h. Table 8 depicts the calculated results proving the effectiveness of the anti-microbial effectiveness in the stomach of the different MCFA

[1] = test system: Campylobacter jejuni VC 5, VC 6 and VC 7 strains; assay: Effect of MCFA on growth and survival of Campylobacter sp. isolated from poultry caecum; format: cell-based; conditions: medium pH 5.0; for relative antimicrobial effect on the tested Campylobacter strains: comparison between MCFA; for antimicrobial activity against Campylobacter strains (CFU/ml, FIGS. 1-9): micro-aerobic, tested concentrations, 0 and 180 minutes
Method: In this example, the MIC values of different MCFA against Campylobacter sp. isolated from poultry caecum were determined.
Three tenfold dilutions of a 10% suspension of three types of MCFA's (C6, C8 and C10) were prepared in distilled water. To obtain the desired concentrations, 1.5, 0.75 and 0.36 ml of these dilutions were pipetted in petri dishes and carefully mixed with 15 ml molten growth medium. A suitable fermentation medium was used with a pH of 5.0.
Isolated Campylobacter strains were grown in suitable fermentation medium and incubated at 37° C. under micro-aerobic conditions by evacuating 80% of the normal atmosphere and introducing a gas mixture of 8% CO2, 8% H2 and 84% N2 into the jar. Inocula were prepared by diluting the cultures in buffered saline to a density of 0.5 on the McFarland turbidity scale and diluted 40-fold before inoculating. Plates were seeded with inoculum. Control plates of media without the product were inoculated at the end of the procedure. All plates were incubated at 37° C. under appropriate atmosphere. Readings were performed after 48 h. Campylobacter was counted after incubation.
These figures represent the number of colony forming units (CFU)/ml of Campylobacter jejuni VC 5 strain (FIGS. 1, 4, 7), Campylobacter jejuni VC 6 strain (FIGS. 2, 5, 8), and Campylobacter jejuni VC 7 strain (FIGS. 3, 6, 9) at various concentrations of MCFA and at two different time points (0 and 180 minutes).

[2] = 0.06% test substance, T = 3 h at 37° C.
[3] = 0.125% test substance, T = 3 h at 37° C.
[4] = 0.250% test substance, T = 3 h at 37° C.
[5] = 0.500% test substance, T = 3 h at 37° C.

Row | Structure (SMILES) | Microbial count (E. coli K88; 0.06% test substance, T = 0 h) | Microbial count (E. coli K88; [2]) | Microbial count (E. coli K88; 0.125% test substance, T = 0 h) | Microbial count (E. coli K88; [3]) | Microbial count (E. coli K88; 0.250% test substance, T = 0 h) | Microbial count (E. coli K88; [4]) | Microbial count (E. coli K88; 0.500% test substance, T = 0 h) | Microbial count (E. coli K88; [5]) | relative antimicrobial effect on the tested Campylobacter strains [1] | antimicrobial activity against Campylobacter strains (CFU/ml, FIGS. 1-9) [1]
1 | CCCCCCCC(=O)O [C8, caprylic acid] | 5.649 Log (CFU/g) | Total inhibition | 5.415 Log (CFU/g) | Total inhibition | Total inhibition | Total inhibition | Total inhibition | Total inhibition | stronger antimicrobial effect compared to C6 | show antimicrobial activities
2 | CCCCCCCCCC(=O)O [C10, capric acid] | 6.964 Log (CFU/g) | 6.854 Log (CFU/g) | 6.927 Log (CFU/g) | 6.707 Log (CFU/g) | 6.966 Log (CFU/g) | 4.708 Log (CFU/g) | 6.816 Log (CFU/g) | Total inhibition | stronger antimicrobial effect compared to C8 | show antimicrobial activities
3 | CCCCCC(=O)O [C6, caproic acid] | 5.708 Log (CFU/g) | 4.160 Log (CFU/g) | 5.700 Log (CFU/g) | Total inhibition | 4.920 Log (CFU/g) | Total inhibition | Total inhibition | Total inhibition | – | show antimicrobial activities

From US8962683B2, “Medium chain fatty acids applicable as anti-microbial agents” (Nutrition Sciences NV, priority 2004, dated 2015)
